In patent US20120190745A1, “ORAL COMPOSITION FOR REDUCING WRINKLE FORMATION” (SHISEIDO COMPANY. LTD., priority 2009, published 2012):

Key:
[1] = system: mice irradiated with ultraviolet rays; test: Wrinkle formation caused by UV irradiation; assay type: in vivo, Skh-1 hairless mice; settings: 10 mM in drinking water for four weeks; UV-B three times a week, total 1.4 J/cm^2; score 0-8 per Table 1; control 4.9; p<1%
Description: Four weeks after the initiation of the D-glutamic acid administration, the dorsal areas of the mice were photographed, and a partly modified method by Bissett et al. (Bissett, D. L. et al., Photochemistry and Photobiology, 46:367(1987)) was employed to evaluate the degree of wrinkle formation in accordance with the judgment criteria indicated in Table 1 shown below.
(§1) Six week-old Skh-1 hairless mice (male) were employed.
(§2) Drinking water containing 10 mM D-glutamic acid was given via a water supplying bottle for four weeks. The negative control employed was drinking water containing no D-glutamic acid.
(§3) UV irradiation was conducted employing a partly modified method by Schwarz et al. (Haratake, A. et al., J. Invest. Dermatol. 108:769 (1997)) in accordance with the repetitive UV-B irradiation method (Naganuma, M. et al., J. Dermatol.Sci.25:29 (2001), Schwartz, E. J., Invest. Dermatol. 91:158 (1988)). Thus, the dorsal area was irradiated with UV-B(light source: Toshiba FL-20 SE fluorescent lamp manufactured by Toshiba Electric) three times a week for four weeks. The total irradiation dose was 1.4 J/cm^2. The UV dose measured with UVRADIOMETER (UVR-305/365D(II), Topcon Corporation) was employed as a readout.
The wrinkle formation was evaluated by a method similar to that in Example 1.

tape-stripped mice [2] = test: Wrinkle formation caused by tape stripping method; assay type: in vivo, HR-1 hairless mice; settings: 10 mM in drinking water for four weeks, score 0-8 per Table 1, control 3.5, p<1%
Description: (§4) Five-week old male HR-1 hairless mice (Hoshino Laboratory Animals, Inc.) were subjected to the experiment.
as §2
(§5) For the purpose of forming a wrinkle, a tape stripping method was conducted three times a week starting on five days after the initiation of the D-glutamic acid administration according to the method by Matsunaga et al. (Matsunaga, Y. et al., Br. J. Dermatol., 156:884 (2007)). Briefly, a 24-mm width cellophane tape (Cellotape (trade mark), Nichiban Co., Ltd.) cut in a length suited to the dorsal length of a hairless mouse (HR-1 strain; Hoshino Laboratory Animals, Inc., Tokyo) was adhered evenly over the entire dorsal area and then peeled off. […] For example when a non-treated hairless mouse was subjected to the adhesion/peeling off cycle procedures, the first treatment involved four cycles, and the second and third treatments involved each five to six cycles and the treatment in the second week and later involved six to eight cycles, whereby increasing the quantity of the horny layer water loss to about to 8 mg/cm^2/h. […]

tape-stripped mice [3] = test: Skin thickening caused by tape stripping method; assay type: in vivo, HR-1 hairless mice; settings: 10 mM in drinking water for four weeks; tape stripping three times a week; negative control 1.2; p<0.1%
Description: as §4, §2
as §5, with “(2007)).” for “(2007)). Briefly, a 24-mm width cellophane tape (Cellotape (trade mark), Nichiban Co., Ltd.) cut in a length suited to the dorsal length of a hairless mouse (HR-1 strain; Hoshino Laboratory Animals, Inc., Tokyo) was adhered evenly over the entire dorsal area and then peeled off.”
Four weeks after the initiation of the D-glutamic acid administration, the skin thickness was measured using a thickness gauge. The measured value of the skin thickness represented as “skin thickness×2”, since the measurement was conducted by calipering the skin with the thickness gauge.

[4] = system: mice irradiated with ultraviolet rays; test: Transepidermal water loss (skin barrier function) in mice irradiated with ultraviolet rays; assay type: in vivo, Skh-1 hairless mice; settings: 10 mM in drinking water for four weeks; UV-B three times a week, total 1.4 J/cm^2; control 16
Description: as §1, §2, §3
Four weeks after the initiation of the D-glutamic acid administration, the quantity of the transepidermal water loss was measured according to a standard method.

With N[C@H](CCC(=O)O)C(=O)O [D-glutamic acid] the wrinkle score [1] was 3.3, the wrinkle score (tape-stripped mice [2]) was 1.5 and the “mean value of the skin thickness (skin thickness×2)” value (tape-stripped mice [3]) was 1.05. For the same compound, the “quantity of the transepidermal water loss” value [4] was 13.
